From patent publication US20110152362A1, “METHODS OF TREATING EPILEPTOGENESIS AND EPILEPSY” (priority 2004, published 2011)
Several values for one entry are separate records, joined by “and”; a condition that tells them apart may be missing. Equal values may be shown once.

Key:
[1] = test system: rats subjected to Li-pilo induced SE; assay: Example 1: mortality induced by lithium-pilocarpine status epilepticus; format: in vivo, rat; conditions: pilo-DZP, 2 mg/kg i.m. 1 h after onset of SE
Procedure: (§1) The bilateral EEG cortical activity was recorded during the whole duration of SE and behavioral changes were noted.
(§2) The effects of increasing doses of the Test Compound were studied on 3 groups of rats. The animals of the first group received 10 mg/kg of the test compound, i.p., 1 h after the onset of SE (pilo-TC10) while the animals of groups 2 and 3 received 30 and 60 mg/kg of the Test Compound (pilo-TC30 and pilo-TC60), respectively.
(§3) The control group received saline instead of pilocarpine and the Test Compound (saline-saline). […] Pilo-DZP received a second injection of 1 mg/kg DZP on the day of SE at about 10 h after the first one. Thereafter, Pilo-DZP and saline-saline rats received twice daily an equivalent volume of saline.

[2] = test system: rats subjected to Li-pilo induced SE; assay: Example 1: latency to and frequency of spontaneous recurrent seizures (SRS), lithium-pilocarpine model; format: in vivo, rat
Procedure: as §1, §2, §3
The effects of the test compound on the EEG and on the latency to occurrence of SRS were investigated by daily video recording of the animals for 10 h per day and the recording of the electrographic activity twice a week for 8 h.
To calculate the frequency of SRS in pilocarpine-exposed rats, the seizure severity and distinguished stage III (clonic seizures of facial muscles and anterior limbs) and stage IV-V seizures (rearing and falling) was measured. The frequency of stage III SRS per week in pilo-DZP and pilo-test compound rats was variable amongst the groups. It was low, constant in the pilo-DZP and pilo-TC60 (with early SRS onset) groups during the first 3 weeks and had disappeared during the 4th week in the pilo-DZP group. […] The frequency of more severe stage IV-V SRS was highest during the first week in most groups, except pilo-TC30 and TC60 with late seizure onset where the SRS frequency was constant over the whole 4 weeks in TC30 group and over the first two weeks in the pilo-TC60 group with late SRS onset in which no stage IV-V seizures where no seizures recorded after the second week.

[3] = test system: rats subjected to Li-pilo induced SE; assay: Example 1: quantification of cell densities in hippocampus, thalamus and cortex after Li-pilo SE; format: in vivo, rat; conditions: pilo-DZP rats
Procedure: as §2, §3
Quantification of cell densities was performed at 6 days after SE on 8 pilo-DZP, 8 pilo-TC10, 7 pilo-TC30, 7 pilo-TC60, and 6 saline-saline rats. […] Counts involved only cells larger than 10 μm, smaller ones being considered as glial cells.
For the comparison of the characteristics of SE in pilo-saline and pilo-test compound animals, a non-paired Student's t-test was used. The comparison between the number of rats seizing in both groups was performed by means of a Chi square test. For neuronal damage, statistical analysis between groups was performed using ANOVA followed by a Fisher's test for multiple comparisons using the Statview software (Fisher R A, 1946a, Statistical Methods for Research Workers (10th edition) Oliver & Boyd, Edinburgh; Fisher R A, 1946b, The Design of Experiments (4th edition) Oliver & Boyd, Edinburgh)

[4] = test system: rats subjected to Li-pilo induced SE; assay: Example 1: Timm staining, mossy fiber sprouting in hippocampus; format: in vivo, rat; conditions: pilo-DZP rats
Procedure: At 2 months after the onset of spontaneous recurrent seizures, mossy fiber sprouting was examined on rats in the chronic period exposed to the test compound or DZP and in 3 saline-saline rats. Animals were deeply anaesthetized and perfused transcardially with saline followed by 100 ml of 1.15% (w/v) Na2S in 0.1 M phosphate buffer, and 100 ml of 4% (v/v) formaldehyde in 0.1 M phosphate buffer. Brains were removed from skull, post-fixed in 4% formaldehyde during 3-5 h and 40 μm sections were cut on a sliding vibratome and mounted on gelatin-coated slides.
The following day, sections were developed in the dark in a 26° C. solution of 50% (w/v) arabic gum (160 ml), sodium citrate buffer (30 ml), 5.7% (w/v) hydroquinone (80 ml) and 10% (w/v) silver nitrate (2.5 ml) during 40-45 min. The sections were then rinsed with tap water at 40° C. during at least 45 min, rinsed rapidly with distilled water and allowed to dry. They were dehydrated in ethanol and coverslipped.
Mossy fiber sprouting was evaluated according to criteria previously described in dorsal hippocampus (Cavazos et al., 1991, J Neurosci 11:2795-2803.), which are follows: 0—no granules between the tips and crest of the DG; 1—sparse granules in the supragranular region in a patchy distribution between the tips and crest of DG; 2—more numerous granules in a continuous distribution between the tips and crest of DG; 3—prominent granules in a continuous pattern between tips and crest, with occasional patches of confluent granules between tips and crest; 4—prominent granules that form a confluent dense laminar band between tips and crest and 5—confluent dense laminar band of granules that extends into the inner molecular layer.

[5] = test system: rats subjected to li-pilo SE; assay: Example 2: mortality over the first 48 h after Li-pilo SE; format: in vivo, rat; design: concentration or dose not given beside the values; conditions: DZP
[6] = test system: rats subjected to li-pilo SE; assay: Example 2: latency to and frequency of spontaneous seizures (video recording); format: in vivo, rat; conditions: DZP group, 2.5 mg/kg i.m.; 2.5 mg/kg
Procedure: The effects of DZP and the 4 doses of TC on epileptogenesis were investigated by daily video recording of the animals for 10 h per day. Video recording was performed for 4 weeks during which the occurrence of the first seizure was noted as well as the total number of seizures over the whole period. Animals were then taken off the video recording system and kept for 4 additional weeks in our animal facilities before they were sacrificed after a total period of 8 weeks of epilepsy.

[7] = test system: rats subjected to li-pilo SE; assay: Example 2: quantification of cell densities 14 days after li-pilo SE;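 further: Thionine-stained 20 µm brain sections, neurons with cell bodies above 10 µm counted, value is the mean of 12 fields per structure from three adjacent sections, both sides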
Procedure: All rats received lithium chloride (3 meq/kg, i.p., Sigma, St Louis, Mo., U.S.A.) and about 20 h later, all animals received also methylscopolamine bromide (1 mg/kg, s.c., Sigma) that was administered to limit the peripheral effects of the convulsant. […] The effects of increasing doses of TC were studied in 5 groups of rats. […] The control group received vehicle instead of pilocarpine and TC.
For neuronal counting, animals were deeply anesthetized with 1.8 g/kg pentobarbital (Dolethal®, Vetoquinol, Lure, France). Brains were then removed and frozen. Serial 20 μm slices were cut in a cryostat, air-dried during several days before thionine staining. […] The grid of counting was placed on a well defined area of the cerebral structure of interest and counting was carried out with a microscopic enlargement of 200- or 400-fold defined for each single cerebral structure. Cell counts were performed twice on each side of three adjacent sections for each region by a single observer unaware of the animal's treatment. The number of cells obtained in the 12 counted fields in each cerebral structure was averaged. This procedure was used to minimize the potential errors that could result from double counting leading to overestimation of cell numbers. […] Counts involved only neurons with cell bodies larger than 10 μm. Cells with small cell bodies were considered as glial cells and were not counted.
For neuronal damage and epileptogenesis, statistical analysis between groups was performed by means of a one-way analysis of variance followed by a post-hoc Dunnett or Fisher test using the Statistica software.

[8] = pilo-DZP (DZP 2.5 mg/kg i.m.), 14 days after li-pilo SE

Q: With `CN1C(=O)CN=C(c2ccccc2)c2cc(Cl)ccc21` [DZP, diazepam, reference compound] as the molecule, how does the “mortality during the first 48 h after SE” value [1] read?
A: 23%

Q: What about the “frequency of stage IV-V SRS” value ([2]; first week, pilo-DZP group) of the same molecule?
A: 11.3 SRS per week

Q: And the “latency to SRS” value ([2]; pilo-DZP rats)?
A: 18.2 ± 6.9 days

Q: And the “cell loss vs saline-saline, CA1 pyramidal cell layer” value [3]?
A: 70% and 75%

Q: And the “cell loss vs saline-saline, CA3a” value [3]?
A: 54%

Q: What about the “cell loss vs saline-saline, CA3b” value [3] of the same molecule?
A: 31%

Q: What about the “cell loss vs saline-saline, hilus of dentate gyrus” value [3] of the same molecule?
A: 73%

Q: And the “cell loss vs saline-saline, lateral thalamic nucleus” value [3]?
A: 91%

Q: What about the “cell loss vs saline-saline, mediodorsal thalamic nucleus” value [3] of the same molecule?
A: 56%

Q: And the “cell loss vs saline-saline, piriform cortex layer II” value [3]?
A: 53%

Q: What about the “cell loss vs saline-saline, ventral entorhinal cortex layers III-IV” value [3] of the same molecule?
A: 44%

Q: And the “cell loss, piriform cortex layers III-IV” value [3]?
A: total

Q: What about the “damage vs saline-saline, dorsal entorhinal cortex layer II” value [3] of the same molecule?
A: 9%

Q: What about the “damage vs saline-saline, dorsal entorhinal cortex layers III-IV” value [3] of the same molecule?
A: 15%

Q: What about the “damage, ventral entorhinal cortex layer II” value [3] of the same molecule?
A: totally preserved

Q: What about the “Timm score in the upper blade of the dentate gyrus, mean” value [4] of the same molecule?
A: 2.8±0.8

Q: What about the “mortality over the first 48 h after SE” value ([5]; group for cell counting at 14 days) of the same molecule?
A: 36%

Q: What about the “mortality over the first 48 h after SE” value ([5]; group for latency to SRS and late cell counting) of the same molecule?
A: 7%

Q: What about the “Latency to the first spontaneous seizure” value [6] of the same molecule?
A: 15.5 ± 2.3 days and 15.5 ± 2.34 days

Q: What about the “neurons surviving in entorhinal cortex, dorsal and ventral” value ([7]; DZP group, 14 days after SE) of the same molecule?
A: 27-81%

Q: What about the “damage vs control, dorsal entorhinal cortex layer II” value ([7]; DZP rats, 14 days after SE) of the same molecule?
A: 18%

Q: And the “damage vs control, dorsal entorhinal cortex layers III-IV” value ([7]; DZP rats, 14 days after SE)?
A: 24%

Q: And the “damage vs control, ventral entorhinal cortex layer II” value ([7]; DZP rats, 14 days after SE)?
A: 22% and 19%

Q: What about the “damage vs control, ventral entorhinal cortex layers III/IV” value ([7]; DZP rats, 14 days after SE) of the same molecule?
A: 74% and 73%

Q: What about the “neuronal damage, amygdala central nucleus” value ([7]; DZP rats, 14 days after SE) of the same molecule?
A: no neuronal damage

Q: What about the “neuronal drop out vs control, CA1 pyramidal cell layer” value ([7]; DZP rats, 14 days after SE) of the same molecule?
A: 85%

Q: And the “neuronal drop out vs control, amygdala basolateral nucleus” value ([7]; DZP rats, 14 days after SE)?
A: 73%

Q: What about the “neuronal drop out vs control, amygdala medial dorsal anterior nucleus” value ([7]; DZP rats, 14 days after SE) of the same molecule?
A: 53%

Q: What about the “neuronal drop out vs control, thalamus central medial nucleus” value ([7]; DZP rats, 14 days after SE) of the same molecule?
A: 34%

Q: What about the “neuronal drop out vs control, thalamus dorsolateral medial dorsal nucleus” value ([7]; DZP rats, 14 days after SE) of the same molecule?
A: 40%

Q: And the “neuronal drop out vs control, thalamus mediodorsal central nucleus” value ([7]; DZP rats, 14 days after SE)?
A: 18%

Q: And the “neuronal drop out vs control, thalamus mediodorsal lateral nucleus” value ([7]; DZP rats, 14 days after SE)?
A: 24%

Q: What about the “neuronal loss vs control, CA3 region” value ([7]; DZP rats, 14 days after SE) of the same molecule?
A: 40%

Q: What about the “neuronal loss vs control, amygdala medial ventral posterior nucleus” value ([7]; DZP rats, 14 days after SE) of the same molecule?
A: 38%

Q: And the “neuronal loss vs control, hilus of dentate gyrus” value ([7]; DZP rats, 14 days after SE)?
A: 65% and 66%

Q: What about the “neuronal loss vs control, piriform cortex dorsal layer II” value ([7]; DZP rats, 14 days after SE) of the same molecule?
A: 66%

Q: And the “neuronal loss vs control, piriform cortex layer III” value ([7]; DZP rats, 14 days after SE)?
A: 94%

Q: What about the “neuronal loss vs control, piriform cortex ventral layer II” value ([7]; DZP rats, 14 days after SE) of the same molecule?
A: 89%

Q: What about the “neuronal loss vs control, thalamus mediodorsal nucleus” value ([7]; DZP rats, 14 days after SE) of the same molecule?
A: 49%

Q: What about the “neuronal loss vs control, ventral lateral division of the dorsolateral nucleus” value ([7]; DZP rats, 14 days after SE) of the same molecule?
A: 90%

Q: And the “number of neuronal cell bodies: Amygdala Basolateral” value [7, 8]?
A: 12.8 ± 5.3

Q: And the “number of neuronal cell bodies: Amygdala Medial, dorsal anterior” value [7, 8]?
A: 40.0 ± 2.5

Q: What about the “number of neuronal cell bodies: Amygdala Medial, ventral posterior” value [7, 8] of the same molecule?
A: 21.8 ± 2.4

Q: What about the “number of neuronal cell bodies: Cerebral cortex Entorhinal, layer II, dorsal” value [7, 8] of the same molecule?
A: 23.5 ± 0.7

Q: What about the “number of neuronal cell bodies: Cerebral cortex Entorhinal, layer II, ventral” value [7, 8] of the same molecule?
A: 21.7 ± 1.3

Q: And the “number of neuronal cell bodies: Cerebral cortex Entorhinal, layer III/IV, dorsal” value [7, 8]?
A: 22.3 ± 0.5

Q: And the “number of neuronal cell bodies: Cerebral cortex Entorhinal, layer III/IV, ventral” value [7, 8]?
A: 7.7 ± 2.3

Q: And the “number of neuronal cell bodies: Cerebral cortex Piriform, layer II, dorsal” value [7, 8]?
A: 12.6 ± 4.2

Q: And the “number of neuronal cell bodies: Cerebral cortex Piriform, layer II, ventral” value [7, 8]?
A: 3.6 ± 0.7

Q: What about the “number of neuronal cell bodies: Cerebral cortex Piriform, layer III” value [7, 8] of the same molecule?
A: 1.2 ± 1.2

Q: What about the “number of neuronal cell bodies: Hippocampus CA1 area” value [7, 8] of the same molecule?
A: 10.9 ± 1.9

Q: And the “number of neuronal cell bodies: Hippocampus CA3 area” value [7, 8]?
A: 31.3 ± 2.9

Q: What about the “number of neuronal cell bodies: Hippocampus Hilus” value [7, 8] of the same molecule?
A: 33.5 ± 3.0

Q: And the “number of neuronal cell bodies: Thalamus Central medial” value [7, 8]?
A: 74.2 ± 7.4

Q: What about the “number of neuronal cell bodies: Thalamus Dorsolateral, medial, dorsal” value [7, 8] of the same molecule?
A: 61 ± 6.3

Q: And the “number of neuronal cell bodies: Thalamus Dorsolateral, ventral lateral” value [7, 8]?
A: 9.7 ± 2.5

Q: What about the “number of neuronal cell bodies: Thalamus Mediodorsal central” value [7, 8] of the same molecule?
A: 26.3 ± 1.8

Q: And the “number of neuronal cell bodies: Thalamus Mediodorsal lateral” value [7, 8]?
A: 19.6 ± 0.8

Q: And the “number of neuronal cell bodies: Thalamus Mediodorsal medial” value [7, 8]?
A: 16.4 ± 1.9
